Experimental data: patent US10350158B2, “2′ fluoro-modified RNAs as immunostimulators” (DUKE UNIVERSITY, priority 2013, dated 2019)

System: RIG-I, MDA-5, and PKR
Assay: Western blot of RNA-sensing PRR expression after transfection
Format: cell-based, human
Conditions: 24 hours after treatment
Procedure: FIG. 2A is a set of FACS plots showing induction of apoptosis. WM266-4 cells were incubated with either liposome (DF) alone or 5′ppp 2′F 10F-liposome complex (10F/DF). At 5 h after incubation, cells were replenished with fresh culture medium. Cells were then incubated for an additional 48 hours, harvested and analyzed for cell death. FIG. 2B is a set of Western blots showing activation of caspases and PARP after transfection. WM266-4 cells were either mock-treated, treated with the 5′ppp 2′F 10F without the transfection reagent, or with the 5′ppp 2′F 10E-transfection reagent complex at the indicated concentrations (1 μg/ml or 0.5 μg/ml). The activation of caspase-7, -9, and PARP was assessed by western blot using antibodies specific to the activated (cleaved) proteins (24 h after treatment). Staurosporine-treated cells were used as a positive control. […] The growth inhibition was assessed at 72 h after electroporation. […] WM266-4 cells were treated as in (FIG. 2B), and the expression of RIG-I, MDA-5, and PKR was analyzed at 24 hours after treatments. […]
Cell lysates were prepared in 1×RIPA buffer (Sigma) in the presence of the complete protease inhibitor cocktail (Roche). […] When different proteins were sequentially detected on the same membrane, membranes were treated for 8 minutes with Restore Western Blot Stripping Buffer (Thermo Scientific), washed, blocked and probed again, as described above. […]

In the case of CN[C@@H]1C[C@H]2O[C@@](C)([C@@H]1OC)n1c3ccccc3c3c4c(c5c6ccccc6n2c5c31)C(=O)NC4 [staurosporine], the “induction of RIG-I, MDA-5 and PKR expression” value is reported as “not observed”.
